Assay results from patent US7115667B2, “Ophthalmic fluid” (Planned Products Pty Ltd., priority 1999, dated 2006).

Columns and labels:
[1] = tested on: ocular substrate; experiment: Subject's report on a hydrogel (soft) contact lens coated with 2–3 drops of the ophthalmic fluid; assay type: in vivo
Source text: (§1) The ophthalmic fluid of the present invention is suitable for use with gas permeable (hard) contact lenses or hydrogel (soft) contact lenses. In use, 2–3 drops of the ophthalmic fluid of the present invention are placed onto the inside surface of the contact lens. The ophthalmic fluid is then distributed to cover fully and evenly the inside surface of the contact lens by rubbing the ophthalmic fluid into the lens with a fingertip or any other suitable applicator. It is envisaged that the ophthalmic fluid will be biologically sterile. The inside of a contact lens was coated with 2–3 drops of the ophthalmic fluid of the present invention and fitted to the subject in the conventional manner. The subject reported on the perceived ease of inserting the coated lens, the subject's sensual reaction to the coated lens and the resulting vision through the coated lens, in relation to hard and soft contact lenses.

[2] = tested on: ocular substrate; experiment: Subject's report on a gas permeable (hard) contact lens coated with 2–3 drops of the ophthalmic fluid; assay type: in vivo
Source text: as §1, with “In” for “The ophthalmic fluid of the present invention is suitable for use with gas permeable (hard) contact lenses or hydrogel (soft) contact lenses. In”

vision through the coated lens [1]	vision through the coated lens [2]	time after which initially blurred vision cleared [1] [min]	time after which initially blurred vision cleared [2]	SMILES	sensation upon insertion / amelioration of the normal discomfort when inserting a soft lens [1]	tear production/expulsion and maceration [1]	subject's sensual reaction to the coated lens (comfort/irritation) [2]	tear production/expulsion and maceration [2]	comfort once the coated lens was inserted [1]	sensation/discomfort caused by the edges of the lens on the eye [2]
clear vision	excessively and persistently blurred	–	–	CCCCC/C=C\C/C=C\C/C=C\C/C=C\CCCC(=O)OCC(COC(=O)CCC/C=C\C/C=C\C/C=C\C/C=C\CCCCC)OC(=O)CCC/C=C\C/C=C\C/C=C\C/C=C\CCCCC [triarachidonin, 1,2,3-tri(cis, cis, cis, cis, −5,8,11,14-eicosatetraenoyl)glycerol]	did not produce any noticeable improvement in the wearer's comfort	increased tear production upon insertion of the soft lens, but no maceration	comfortable to wear	did not experience tear production or maceration	–	–
initially experienced blurred vision	blurred	2	–	CC/C=C\C/C=C\C/C=C\CCCCCCCC(=O)OCC(COC(=O)CCCCCCC/C=C\C/C=C\C/C=C\CC)OC(=O)CCCCCCC/C=C\C/C=C\C/C=C\CC [trilinolenin, 1,2,3-tri(cis, cis, cis −9,12,15-octadecatrienoyl)glycerol]	–	–	extreme irritation	increased tear production and maceration of the ocular substrate	comfortable to wear	–
immediately clear	initially experienced blurred vision	–	approximately 60 seconds	CCCCC/C=C\C/C=C\CCCCCCCC(=O)OCC(COC(=O)CCCCCCC/C=C\C/C=C\CCCCC)OC(=O)CCCCCCC/C=C\C/C=C\CCCCC [trilinolein, 1,2,3-tri(cis, cis-9,12octadecadienoyl)glycerol]	noticeable amelioration of the normal discomfort	no tear expulsion	could not feel the presence of the coated lens	no tear expulsion	could not feel the presence of the coated lens	not reduced to the same extent
blurred	excessively blurred	–	–	CCCCCC/C=C\CCCCCCCC(=O)OCC(COC(=O)CCCCCCC/C=C\CCCCCC)OC(=O)CCCCCCC/C=C\CCCCCC [tripalmitolein, 1,2,3-tri(cis-9-hexadecenoyl)glycerol]	–	–	could not feel the presence of the coated lens	–	comfortable	not reduced to the same extent
